Ten compounds from patent US11771738B2 (Zoetis Services LLC, priority 2018, dated 2023) can be followed below.

SMILES strings stand for the structures. Marks after values point to notes of the source that are not given here.

The first experiment concerns third stage larvae of Haemonchus contortus. Nature of the experiment: Haemonchus contortus, Larvae Stage 3 (HcL3) In Vitro Assay. It counts as cell-based. The conditions noted are these: Haemonchus contortus third stage larvae in vitro; class mark appended to the Ex # in Table 3.
As for `Cc1ncc(Cc2ccc(C[C@H]3OC(=O)[C@H](CC(C)C)N(C)C(=O)[C@@H](C)OC(=O)[C@H](CC(C)C)N(C)C(=O)[C@@H](Cc4ccc(Cc5cnc(C)o5)cc4)OC(=O)[C@H](CC(C)C)N(C)C(=O)[C@@H](C)OC(=O)[C@H](CC(C)C)N(C)C3=O)cc2)o1` [Example 3-298], the “HcL3 MED” value was 3-298^ (Examples with a carrot (^) have HcL3 MED values>1 and ≤3.3 μM).

As for `CC(C)C[C@H]1C(=O)O[C@H](Cc2ccc(Cc3ncccn3)cc2)C(=O)N(C)[C@@H](CC(C)C)C(=O)O[C@H](C)C(=O)N(C)[C@@H](CC(C)C)C(=O)O[C@H](Cc2ccc(Cc3ncccn3)cc2)C(=O)N(C)[C@@H](CC(C)C)C(=O)O[C@H](C)C(=O)N1C` [Example 3-73], the “HcL3 MED” value is on record as 3-73* (Examples with an asterisk (*) have HcL3 MED values≤1 μM).

On to `COc1cc(Cc2ccc(C[C@H]3OC(=O)[C@H](CC(C)C)N(C)C(=O)[C@@H](C)OC(=O)[C@H](CC(C)C)N(C)C(=O)[C@@H](Cc4ccc(Cc5ccnc(OC)c5)cc4)OC(=O)[C@H](CC(C)C)N(C)C(=O)[C@@H](C)OC(=O)[C@H](CC(C)C)N(C)C3=O)cc2)ccn1` [Example 3-192], for which the “HcL3 MED” value is 3-192^ (Examples with a carrot (^) have HcL3 MED values>1 and ≤3.3 μM).

In the case of `CC(C)C[C@H]1C(=O)O[C@H](Cc2ccc(Cc3cnn(C(F)F)c3)cc2)C(=O)N(C)[C@@H](CC(C)C)C(=O)O[C@H](C)C(=O)N(C)[C@@H](CC(C)C)C(=O)O[C@H](Cc2ccc(Cc3cnn(C(F)F)c3)cc2)C(=O)N(C)[C@@H](CC(C)C)C(=O)O[C@H](C)C(=O)N1C` [Example 3-119], the “HcL3 MED” value is 3-119* (Examples with an asterisk (*) have HcL3 MED values≤1 μM).

On to `CC(C)C[C@H]1C(=O)O[C@H](Cc2ccc(Cc3nc(-c4ccccc4)cs3)cc2)C(=O)N(C)[C@@H](CC(C)C)C(=O)O[C@H](C)C(=O)N(C)[C@@H](CC(C)C)C(=O)O[C@H](Cc2ccc(Cc3nc(-c4ccccc4)cs3)cc2)C(=O)N(C)[C@@H](CC(C)C)C(=O)O[C@H](C)C(=O)N1C` [Example 3-36], for which the “HcL3 MED” value is reported as 3-36* (Examples with an asterisk (*) have HcL3 MED values≤1 μM).

On to `CC(C)C[C@H]1C(=O)O[C@H](Cc2ccc(Cc3cc[nH]n3)cc2)C(=O)N(C)[C@@H](CC(C)C)C(=O)O[C@H](C)C(=O)N(C)[C@@H](CC(C)C)C(=O)O[C@H](Cc2ccc(Cc3cc[nH]n3)cc2)C(=O)N(C)[C@@H](CC(C)C)C(=O)O[C@H](C)C(=O)N1C` [Example 3-301], for which the “HcL3 MED” value is 3-301^ (Examples with a carrot (^) have HcL3 MED values>1 and ≤3.3 μM).

The experiment is the same for the next values; noted with them: approximately 96 hours incubation; multiple-resistant field isolate.
`Cc1nc(Cc2ccc(C[C@H]3OC(=O)[C@H](CC(C)C)N(C)C(=O)[C@@H](C)OC(=O)[C@H](CC(C)C)N(C)C(=O)[C@@H](Cc4ccccc4)OC(=O)[C@H](CC(C)C)N(C)C(=O)[C@@H](C)OC(=O)[C@H](CC(C)C)N(C)C3=O)cc2)cs1` [Example 4-66]: the “HcL3 MED (symbol after Ex#)” value is 4-66^ (Examples with a carrot (^) have HcL3 MED values>1 and ≤3.3 μM).

On to `CC(C)C[C@H]1C(=O)O[C@H](Cc2ccc(Cc3cncs3)cc2)C(=O)N(C)[C@@H](CC(C)C)C(=O)O[C@H](C)C(=O)N(C)[C@@H](CC(C)C)C(=O)O[C@H](Cc2ccccc2)C(=O)N(C)[C@@H](CC(C)C)C(=O)O[C@H](C)C(=O)N1C` [Example 4-35], for which the “HcL3 MED (symbol after Ex#)” value is 4-35^ (Examples with a carrot (^) have HcL3 MED values>1 and ≤3.3 μM).

In the case of `Cc1nc(Cc2ccc(C[C@H]3OC(=O)[C@H](CC(C)C)N(C)C(=O)[C@@H](C)OC(=O)[C@H](CC(C)C)N(C)C(=O)[C@@H](Cc4ccccc4)OC(=O)[C@H](CC(C)C)N(C)C(=O)[C@@H](C)OC(=O)[C@H](CC(C)C)N(C)C3=O)cc2)sc1C` [Example 4-115], the “HcL3 MED (symbol after Ex#)” value is 4-115^ (Examples with a carrot (^) have HcL3 MED values>1 and ≤3.3 μM).

Regarding `COc1ccccc1Cc1ccc(C[C@H]2OC(=O)[C@H](CC(C)C)N(C)C(=O)[C@@H](C)OC(=O)[C@H](CC(C)C)N(C)C(=O)[C@@H](Cc3ccccc3)OC(=O)[C@H](CC(C)C)N(C)C(=O)[C@@H](C)OC(=O)[C@H](CC(C)C)N(C)C2=O)cc1` [Example 2-12], the “HcL3 MED (symbol after Ex#)” value is 2-12^ (Examples with a carrot (^) have HcL3 MED values>1 and ≤3.3 μM).
